Literature values in PubChem BioAssay AID1259409 (Chemical Carcinogenesis Research Information System (CCRIS), 2018).
Where “and” joins values, the source holds several entries; their conditions need not be identical. Identical values can stand only once.

System: rodent chemically induced tumor inhibition, incidence and multiplicity
Assay: CCRIS tumor inhibitor studies

COc1cc(/C=C/C(=O)O)ccc1O
tumour outcome (control, treated, inhibition, significance) (Carcinogen: 4-NITROQUINOLINE-1-OXIDE [56-57-5], Dose [Inhibitor]: 500 PPM IN DIET FOR 7 WK BEGINNING 1 WK PRIOR TO FIRST CARCINOGEN DOSE (STUDY DURATION: 32 WK), Route [Inhibitor]: ORAL, Species: RAT, Strain/Sex: F344/MALE, Target Tissue: Type of Lesion: TONGUE: PAPILLOMA OR CARCINOMA, Dose [Carcinogen]: 20 PPM IN DRINKING WATER FOR 5 WK (STUDY DURATION: 32 WK), Promoter: NONE): 9/15 (60%), 3/14 (21%), 65%, p<0.05 | tumour outcome (control, treated, inhibition, significance) (Carcinogen: 4-NITROQUINOLINE-1-OXIDE, 56-57-5, Dose [Inhibitor]: 0, 500 PPM IN DIET FOR 7 WK BEGINNING 1 WK PRIOR TO START OF CARCINOGEN TREATMENT (STUDY DURATION: 32 WK), Route [Inhibitor]: ORAL, Species: RAT, Strain/Sex: F344/MALE, Target Tissue: Type of Lesion: TONGUE: PAPILLOMA, Dose [Carcinogen]: 20 PPM IN DRINKING WATER FOR 5 WK, Promoter: NONE USED): 1/15 (7%), 2/14 (14%), -100%, not significant | tumour outcome (control, treated, inhibition, significance) (Carcinogen: 7,12-DIMETHYLBENZ[A]ANTHRACENE, 57-97-6, Dose [Inhibitor]: 0, 5 MG IN 200 µL ACETONE 2/WK BEGINNING 10 D POST CARCINOGEN DOSE APPLIED 30-40 MIN PRIOR TO EACH PROMOTER DOSE (STUDY, Route [Inhibitor]: DERMAL, Species: MOUSE, Strain/Sex: ICR/FEMALE, Target Tissue: Type of Lesion: SKIN: PAPILLOMA, Dose [Carcinogen]: 200 NMOL IN 200 µL ACETONE ONCE, Promoter: 12-O-TETRADECANOYLPHORBOL-13-ACETATE, 16561-29-8): 100%, 94%, 6%, not significant and 100%, 65%, 35%, not calculated | tumour outcome (control, treated, inhibition, significance) (Carcinogen: 7,12-DIMETHYLBENZ[A]ANTHRACENE, 57-97-6, Dose [Inhibitor]: 10 UMOL IN 200 µL ACETONE/DMSO (90:10) 2/WK FOR 19 WK BEGINNING 1 WK POST CARCINOGEN DOSE (STUDY DURATION: 20 WK), Route [Inhibitor]: DERMAL, Species: MOUSE, Strain/Sex: CD-1/FEMALE, Target Tissue: Type of Lesion: SKIN: PAPILLOMA, Dose [Carcinogen]: 200 NMOL IN 200 µL ACETONE ONCE, Promoter: 12-O-TETRADECANOYLPHORBOL-13-ACETATE, 16561-29-8): 68%, 64%, 6%, not calculated | tumour outcome (control, treated, inhibition, significance) (Carcinogen: 7,12-DIMETHYLBENZ[A]ANTHRACENE, 57-97-6, Dose [Inhibitor]: 50 UMOL IN 200 µL ACETONE/DMSO (90:10) 2/WK FOR 19 WK BEGINNING 1 WK POST CARCINOGEN DOSE (STUDY DURATION: 20 WK), Route [Inhibitor]: DERMAL, Species: MOUSE, Strain/Sex: CD-1/FEMALE, Target Tissue: Type of Lesion: SKIN: PAPILLOMA, Dose [Carcinogen]: 200 NMOL IN 200 µL ACETONE ONCE, Promoter: 12-O-TETRADECANOYLPHORBOL-13-ACETATE, 16561-29-8): 68%, 13%, 81%, not calculated | tumour outcome (control, treated, inhibition, significance) (Carcinogen: AZOXYMETHANE [25843-45-2], Dose [Inhibitor]: 0, 250 PPM IN DIET FOR 12 WK (STUDY DURATION: 35 WK), Route [Inhibitor]: ORAL, Species: RAT, Strain/Sex: F344/MALE, Target Tissue: Type of Lesion: INTESTINE: TUMOR, Dose [Carcinogen]: 15 MG/KG 3X/WK FOR 12 WK (STUDY DURATION: 35 WK), Promoter: NONE): 64%, 32%, 50%, p<0.05 | tumour outcome (control, treated, inhibition, significance) (Carcinogen: AZOXYMETHANE [25843-45-2], Dose [Inhibitor]: 0, 250 PPM IN DIET FOR 12 WK (STUDY DURATION: 35 WK), Route [Inhibitor]: ORAL, Species: RAT, Strain/Sex: F344/MALE, Target Tissue: Type of Lesion: SMALL INTESTINE: TUMOR, Dose [Carcinogen]: 15 MG/KG 3X/WK FOR 12 WK (STUDY DURATION: 35 WK), Promoter: NONE): 18%, 5%, 72%, not significant | tumour outcome (control, treated, inhibition, significance) (Carcinogen: AZOXYMETHANE [25843-45-2], Dose [Inhibitor]: 0, 250 PPM IN DIET FOR 23 WK BEGINNING POST LAST CARCINOGEN DOSE (STUDY DURATION: 35 WK), Route [Inhibitor]: ORAL, Species: RAT, Strain/Sex: F344/MALE, Target Tissue: Type of Lesion: INTESTINE: TUMOR, Dose [Carcinogen]: 15 MG/KG 3X/WK FOR 12 WK (STUDY DURATION: 35 WK), Promoter: NONE): 64%, 41%, 36%, p<0.05 | tumour outcome (control, treated, inhibition, significance) (Carcinogen: AZOXYMETHANE [25843-45-2], Dose [Inhibitor]: 0, 250 PPM IN DIET FOR 23 WK BEGINNING POST LAST CARCINOGEN DOSE (STUDY DURATION: 35 WK), Route [Inhibitor]: ORAL, Species: RAT, Strain/Sex: F344/MALE, Target Tissue: Type of Lesion: LARGE INTESTINE: TUMOR, Dose [Carcinogen]: 15 MG/KG 3X/WK FOR 12 WK (STUDY DURATION: 35 WK), Promoter: NONE): 11%, 36%, -227%, not significant | tumour outcome (control, treated, inhibition, significance) (Carcinogen: AZOXYMETHANE [25843-45-2], Dose [Inhibitor]: 0, 250 PPM IN DIET FOR 23 WK BEGINNING POST LAST CARCINOGEN DOSE (STUDY DURATION: 35 WK), Route [Inhibitor]: ORAL, Species: RAT, Strain/Sex: F344/MALE, Target Tissue: Type of Lesion: SMALL INTESTINE: TUMOR, Dose [Carcinogen]: 15 MG/KG 3X/WK FOR 12 WK (STUDY DURATION: 35 WK), Promoter: NONE): 18%, 18%, 0%, not significant | tumour outcome (control, treated, inhibition, significance) (Carcinogen: AZOXYMETHANE [25843-45-2], Dose [Inhibitor]: 0, 500 PPM IN DIET FOR 12 WK (STUDY DURATION: 35 WK), Route [Inhibitor]: ORAL, Species: RAT, Strain/Sex: F344/MALE, Target Tissue: Type of Lesion: INTESTINE: TUMOR, Dose [Carcinogen]: 15 MG/KG 3X/WK FOR 12 WK (STUDY DURATION: 35 WK), Promoter: NONE): 64%, 32%, 50%, p<0.05 | tumour outcome (control, treated, inhibition, significance) (Carcinogen: AZOXYMETHANE [25843-45-2], Dose [Inhibitor]: 0, 500 PPM IN DIET FOR 12 WK (STUDY DURATION: 35 WK), Route [Inhibitor]: ORAL, Species: RAT, Strain/Sex: F344/MALE, Target Tissue: Type of Lesion: LARGE INTESTINE: TUMOR, Dose [Carcinogen]: 15 MG/KG 3X/WK FOR 12 WK (STUDY DURATION: 35 WK), Promoter: NONE): 11%, 27%, -146%, not significant | tumour outcome (control, treated, inhibition, significance) (Carcinogen: AZOXYMETHANE [25843-45-2], Dose [Inhibitor]: 0, 500 PPM IN DIET FOR 12 WK (STUDY DURATION: 35 WK), Route [Inhibitor]: ORAL, Species: RAT, Strain/Sex: F344/MALE, Target Tissue: Type of Lesion: SMALL INTESTINE: TUMOR, Dose [Carcinogen]: 15 MG/KG 3X/WK FOR 12 WK (STUDY DURATION: 35 WK), Promoter: NONE): 18%, 5%, 72%, not significant | tumour outcome (control, treated, inhibition, significance) (Carcinogen: AZOXYMETHANE [25843-45-2], Dose [Inhibitor]: 0, 500 PPM IN DIET FOR 23 WK BEGINNING POST LAST CARCINOGEN DOSE (STUDY DURATION: 35 WK), Route [Inhibitor]: ORAL, Species: RAT, Strain/Sex: F344/MALE, Target Tissue: Type of Lesion: INTESTINE: TUMOR, Dose [Carcinogen]: 15 MG/KG 3X/WK FOR 12 WK (STUDY DURATION: 35 WK), Promoter: NONE): 64%, 41%, 36%, not significant
